Values of other authors as cited in patent US6416998B1, “Plasmid encoding a modified steroid hormone” (Baylor College of Medicine, priority 1992, dated 2002).

How the values were obtained:
Settings in all cases: cited from earlier work
[1] = target: T1, rat progesterone receptor (Rattus norvegicus, UniProt Q63449)
T1 sequence (Q63449 1-923): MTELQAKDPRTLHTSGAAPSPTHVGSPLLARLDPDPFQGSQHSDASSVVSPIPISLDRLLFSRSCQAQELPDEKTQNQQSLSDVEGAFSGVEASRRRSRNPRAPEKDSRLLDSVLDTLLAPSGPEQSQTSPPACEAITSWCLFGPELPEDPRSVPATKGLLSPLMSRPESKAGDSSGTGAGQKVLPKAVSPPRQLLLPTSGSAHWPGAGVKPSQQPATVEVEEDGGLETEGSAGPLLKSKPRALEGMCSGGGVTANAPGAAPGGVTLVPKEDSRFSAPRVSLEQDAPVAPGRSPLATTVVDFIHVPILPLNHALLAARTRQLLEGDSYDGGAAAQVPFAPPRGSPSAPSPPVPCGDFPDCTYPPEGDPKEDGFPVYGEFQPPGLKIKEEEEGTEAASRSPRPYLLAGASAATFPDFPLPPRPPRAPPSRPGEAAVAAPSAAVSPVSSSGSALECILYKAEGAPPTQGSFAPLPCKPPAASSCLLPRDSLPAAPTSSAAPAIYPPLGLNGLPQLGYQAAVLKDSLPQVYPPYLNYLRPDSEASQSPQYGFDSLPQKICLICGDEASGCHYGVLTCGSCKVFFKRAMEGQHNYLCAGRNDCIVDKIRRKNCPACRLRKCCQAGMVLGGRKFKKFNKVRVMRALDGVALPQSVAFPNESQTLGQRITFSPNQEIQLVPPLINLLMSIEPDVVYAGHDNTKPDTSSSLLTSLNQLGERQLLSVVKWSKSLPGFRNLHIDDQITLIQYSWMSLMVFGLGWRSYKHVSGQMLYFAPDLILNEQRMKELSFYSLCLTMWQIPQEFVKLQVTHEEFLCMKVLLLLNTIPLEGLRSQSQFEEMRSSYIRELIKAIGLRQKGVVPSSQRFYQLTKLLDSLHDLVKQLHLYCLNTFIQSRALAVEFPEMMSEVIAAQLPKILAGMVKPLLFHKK

[2] = target: T2, chicken progesterone receptor (Gallus gallus, UniProt P07812)
T2 sequence (P07812 1-786): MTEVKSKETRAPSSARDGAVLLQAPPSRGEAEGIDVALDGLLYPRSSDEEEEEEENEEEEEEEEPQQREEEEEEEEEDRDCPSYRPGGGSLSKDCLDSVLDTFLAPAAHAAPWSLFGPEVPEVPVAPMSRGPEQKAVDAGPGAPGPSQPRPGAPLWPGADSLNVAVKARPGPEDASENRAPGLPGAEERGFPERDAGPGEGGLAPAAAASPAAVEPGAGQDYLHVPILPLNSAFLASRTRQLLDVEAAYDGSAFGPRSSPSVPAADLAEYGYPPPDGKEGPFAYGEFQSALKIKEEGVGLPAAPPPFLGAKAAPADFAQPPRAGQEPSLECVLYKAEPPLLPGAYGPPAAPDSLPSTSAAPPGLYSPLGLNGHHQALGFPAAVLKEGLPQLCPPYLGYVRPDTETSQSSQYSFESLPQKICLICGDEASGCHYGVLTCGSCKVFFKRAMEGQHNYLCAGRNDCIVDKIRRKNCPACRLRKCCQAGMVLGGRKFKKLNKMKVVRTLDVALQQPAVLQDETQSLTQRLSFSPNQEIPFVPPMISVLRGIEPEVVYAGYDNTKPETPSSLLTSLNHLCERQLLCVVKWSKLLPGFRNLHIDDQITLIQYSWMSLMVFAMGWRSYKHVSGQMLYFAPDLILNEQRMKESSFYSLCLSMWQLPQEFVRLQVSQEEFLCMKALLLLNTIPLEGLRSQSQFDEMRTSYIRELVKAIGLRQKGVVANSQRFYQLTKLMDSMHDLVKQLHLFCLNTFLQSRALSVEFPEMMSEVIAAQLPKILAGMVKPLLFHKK

[3] = target: T3, human progesterone receptor (Homo sapiens, UniProt P06401)
T3 sequence (P06401 1-933): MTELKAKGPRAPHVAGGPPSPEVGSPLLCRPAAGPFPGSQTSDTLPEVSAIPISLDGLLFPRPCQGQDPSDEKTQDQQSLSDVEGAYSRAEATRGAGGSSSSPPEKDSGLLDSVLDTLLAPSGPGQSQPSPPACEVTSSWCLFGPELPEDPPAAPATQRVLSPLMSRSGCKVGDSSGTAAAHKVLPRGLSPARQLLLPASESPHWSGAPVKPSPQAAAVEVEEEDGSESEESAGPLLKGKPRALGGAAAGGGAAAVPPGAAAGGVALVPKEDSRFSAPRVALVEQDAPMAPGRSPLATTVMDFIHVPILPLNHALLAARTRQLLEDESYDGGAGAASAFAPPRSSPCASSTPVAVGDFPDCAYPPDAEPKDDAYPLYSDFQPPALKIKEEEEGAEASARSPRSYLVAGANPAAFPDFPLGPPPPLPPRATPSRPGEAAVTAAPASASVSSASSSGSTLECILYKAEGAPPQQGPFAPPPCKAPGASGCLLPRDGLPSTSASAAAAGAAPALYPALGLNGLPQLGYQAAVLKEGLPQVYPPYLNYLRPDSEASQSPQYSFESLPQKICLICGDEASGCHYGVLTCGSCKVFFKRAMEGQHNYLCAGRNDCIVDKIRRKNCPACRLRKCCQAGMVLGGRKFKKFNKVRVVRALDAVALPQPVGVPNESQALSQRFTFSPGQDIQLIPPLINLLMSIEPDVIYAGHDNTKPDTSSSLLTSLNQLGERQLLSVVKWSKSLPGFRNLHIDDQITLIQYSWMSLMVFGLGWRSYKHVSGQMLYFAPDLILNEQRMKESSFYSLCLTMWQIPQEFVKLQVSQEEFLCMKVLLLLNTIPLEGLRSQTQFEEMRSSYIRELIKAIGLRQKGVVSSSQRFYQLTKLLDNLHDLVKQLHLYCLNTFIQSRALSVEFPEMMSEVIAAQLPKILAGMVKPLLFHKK

Vitamin D receptor = target: T4, Vitamin D receptor (Homo sapiens, UniProt P11473)
T4 sequence (P11473 1-427): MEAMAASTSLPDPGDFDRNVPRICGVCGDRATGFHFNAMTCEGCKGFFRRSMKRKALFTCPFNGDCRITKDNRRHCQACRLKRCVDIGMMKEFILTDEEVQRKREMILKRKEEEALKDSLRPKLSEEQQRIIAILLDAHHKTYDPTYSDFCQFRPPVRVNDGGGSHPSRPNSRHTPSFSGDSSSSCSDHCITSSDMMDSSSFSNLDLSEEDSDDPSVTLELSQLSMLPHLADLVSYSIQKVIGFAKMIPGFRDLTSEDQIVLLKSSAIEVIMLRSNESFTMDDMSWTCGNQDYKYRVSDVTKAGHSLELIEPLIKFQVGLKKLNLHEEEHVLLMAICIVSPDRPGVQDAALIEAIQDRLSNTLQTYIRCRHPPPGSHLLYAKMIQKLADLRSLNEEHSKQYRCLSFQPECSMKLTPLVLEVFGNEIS

| SMILES | binding [1] | binding [2] | binding [3] | receptor activation (Vitamin D receptor) |
| --- | --- | --- | --- | --- |
| CC(=O)[C@H]1CC[C@H]2[C@@H]3CC[C@H]4CC(=O)CC[C@]4(C)[C@H]3CC[C@]12C [5α-pregnane-3,20-dione] | binds extremely well | binds extremely well | does not bind or binds very poorly | – |
| C=C1CC[C@H](O)C/C1=C/C=C1\CCC[C@]2(C)[C@@H]([C@H](C)CCC(O)C(C)(C)O)CC[C@@H]12 (stereo partly shown) [24,25-dihydroxy-Vitamin D] | – | – | – | does not |
